How the values were obtained:
Assay in all cases: cell viability (% survival relative to DMSO control, bortezomib = 0%); higher = less cytotoxic
Conditions in all cases: 72 h
KU-812 = tested on: KU-812
How it was run: (§1)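 Seeding density for each of the 10 AML and 5 CML cell lines was titrated to the linear growth range. Cells went into 384-well plates pre-printed in duplicate with compounds at 1, 10, 100, 1000 or 10000 nM and were held for 72 h at 37 °C with 5% CO2. CellTiter-Glo luminescence then provided the readout. Percent survival is expressed relative to vehicle at 100% and a 10 µM positive control at 0%, averaged over duplicates.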

SHI-1 = tested on: SHI-1
How it was run: as §1

KCL-22 = tested on: KCL-22
How it was run: as §1

LAMA-84 = tested on: LAMA-84
How it was run: as §1

Mono-Mac-6 = tested on: Mono-Mac-6
How it was run: as §1

HL-60 = tested on: HL-60
How it was run: as §1

MV4-11 = tested on: MV4-11
How it was run: as §1

K-562 = tested on: K-562
How it was run: as §1

MOLM-13 = tested on: MOLM-13
How it was run: as §1

## Cc1ccc(-c2cc(C(F)(F)F)nn2-c2ccc(S(N)(=O)=O)cc2)cc1 [Celecoxib]
KU-812; 1 nM
  cell viability: 92.4%
KU-812; 10 nM
  cell viability: 91.9%
KU-812; 100 nM
  cell viability: 95.6%
KU-812; 1000 nM
  cell viability: 90.6%
KU-812; 10000 nM
  cell viability: 62.8%
SHI-1; 1 nM
  cell viability: 118%
SHI-1; 10 nM
  cell viability: 104%
SHI-1; 100 nM
  cell viability: 95.6%
SHI-1; 1000 nM
  cell viability: 112%
SHI-1; 10000 nM
  cell viability: 94.2%
KCL-22; 1 nM
  cell viability: 101%
KCL-22; 10 nM
  cell viability: 76.4%
KCL-22; 100 nM
  cell viability: 90.7%
KCL-22; 1000 nM
  cell viability: 76.9%
KCL-22; 10000 nM
  cell viability: 80%
LAMA-84; 1 nM
  cell viability: 98.6%
LAMA-84; 10 nM
  cell viability: 106%
LAMA-84; 100 nM
  cell viability: 94%
LAMA-84; 1000 nM
  cell viability: 93.7%
LAMA-84; 10000 nM
  cell viability: 79.6%
Mono-Mac-6; 1 nM
  cell viability: 104%
Mono-Mac-6; 10 nM
  cell viability: 101%
Mono-Mac-6; 100 nM
  cell viability: 105%
Mono-Mac-6; 1000 nM
  cell viability: 104%
Mono-Mac-6; 10000 nM
  cell viability: 75.3%
HL-60; 1 nM
  cell viability: 99.2%
HL-60; 10 nM
  cell viability: 103%
HL-60; 100 nM
  cell viability: 84.5%
HL-60; 1000 nM
  cell viability: 188%
HL-60; 10000 nM
  cell viability: 124%
MV4-11; 1 nM
  cell viability: 97.5%
MV4-11; 10 nM
  cell viability: 96.4%
MV4-11; 100 nM
  cell viability: 83.7%
MV4-11; 1000 nM
  cell viability: 110%
MV4-11; 10000 nM
  cell viability: 79.4%
K-562; 1 nM
  cell viability: 96.3%
K-562; 10 nM
  cell viability: 86.6%
K-562; 100 nM
  cell viability: 85.6%
K-562; 1000 nM
  cell viability: 95.4%
K-562; 10000 nM
  cell viability: 78.4%
MOLM-13; 1 nM
  cell viability: 81.3%
MOLM-13; 10 nM
  cell viability: 85.7%
MOLM-13; 100 nM
  cell viability: 85.4%
MOLM-13; 1000 nM
  cell viability: 139%
MOLM-13; 10000 nM
  cell viability: 92.5%

— the supplement of paper PMC8671470
